From US9932335B2 (priority 2013, dated 2018)
Positions count from the first letter of the chain named. Read-outs that look alike come from different tables or passages of the source.

Tests used:
human M1 = target: T1, human M1 (Homo sapiens, UniProt P11229); experiment: M1 PAM assay (FLIPR intracellular calcium, CHO human M1); assay type: cell-based
T1 construct: expressed in transfected cells; host or cells: CHO cells
T1 sequence (P11229 1-460): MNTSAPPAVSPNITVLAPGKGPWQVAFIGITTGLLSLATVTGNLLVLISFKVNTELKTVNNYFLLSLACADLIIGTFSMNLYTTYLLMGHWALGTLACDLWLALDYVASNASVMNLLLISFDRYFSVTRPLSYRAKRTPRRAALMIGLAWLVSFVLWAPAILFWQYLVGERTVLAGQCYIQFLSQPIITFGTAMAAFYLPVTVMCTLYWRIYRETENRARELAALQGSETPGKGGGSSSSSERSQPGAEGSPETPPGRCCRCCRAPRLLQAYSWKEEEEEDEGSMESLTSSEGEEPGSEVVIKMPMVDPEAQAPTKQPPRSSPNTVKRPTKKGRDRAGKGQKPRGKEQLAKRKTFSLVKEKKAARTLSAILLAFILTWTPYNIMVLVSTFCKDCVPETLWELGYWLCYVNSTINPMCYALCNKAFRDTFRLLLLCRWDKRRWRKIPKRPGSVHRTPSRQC
Method: The assay study the effect of several concentrations of test compounds on basal or acetylcholine-stimulated Ca^2+ levels using FLIPR. CHO human M1 are plated the day before the experiments at 2×10^5 cells/ml in PDL BioCoat 96 well black/clear plate (Becton 35 4640). The cells are grown at 37° C. and 5% CO2 in the following medium: F12 Nut Mix (Gibco 21765), 10% FCS heat inactivated (GIBCO 16000-044), 1% Pen Strep (Gibco, 15140) and 200 μg/ml Geneticin (Gibco 11811). On the day of the experiment, the medium was removed and replaced by 100 μl of dye loading buffer containing Hanks Balanced Salt solution (HBSS, 14065-049, Gibco) with 20 mM HEPES (Gibco 15630-056), 2 mM Probenicid (Sigma P8761), […] (Molecular Probes F-14202), 10% Pluronic acid Molecular Probes P-3000) pH=7.4 and incubated at 37° C. After 60 minutes extracellular dye was removed and the cells were washed five times with FLIPR buffer containing HBSS (Gibco 14065-049) with 20 mM HEPES (Gibco, 15630-056), 2 mM Probenicid (Sigma P8761) pre-warmed at 37° C. using and Ebml cell washer leaving 100 μl of FLIPR buffer in each well. The cell plate and the diluted compounds (1% DMSO final concentration) are placed on the platform of the FLIPR and the door closed. A signal test to check background fluorescence and basal fluorescence signal is performed. Laser intensity is adjusted if necessary. Two minutes preincubation with the diluted test compounds is provide to determine any agonist activity on the M1 receptor by comparison to 30 nM Acetylcholine control. In order to determine any modulator activity the diluted compounds were added to cells and after two minutes preincubation, the EC20 of acetylcholine is added followed by another two minutes preincubation before the measurement of intracellular Ca^2+ with a FLIPR (Molecular Devices).

M1 receptor = target: T2, M1 receptor (Rattus norvegicus, UniProt P08482); experiment: M1 PAM assay (FLIPR intracellular calcium), rat; assay type: cell-based
T2 construct: expressed in transfected cells
T2 sequence (P08482 1-460): T1 sequence (P11229 1-460) with A5V, T254S, P309S, R320K, A337G, I413V

[1] = human M1 in CHO cells, modulator activity with EC20 of acetylcholine, FLIPR Ca2+, read-out: EC50 h PAM
[2] = rat, modulator activity with EC20 of acetylcholine, FLIPR Ca2+, read-out: EC50 rat PAM

| Structure (SMILES) | EC50 (human M1; [1]) [nM] | EC50 (M1 receptor; [2]) [nM] | EC50 (human M1) [nM] | EC50 (M1 receptor) [nM] |
| --- | --- | --- | --- | --- |
| Cn1cc(-c2ccc(Cn3cc(C(=O)N[C@H]4CCCC[C@@H]4F)c4ncccc43)c(F)c2)cn1 (racemic) [Example 58, 1-(2-fluoro-4-(1-methyl-1H-pyrazol-4-yl)benzyl)-N-((1SR,2SR)-2-fluorocyclohexyl)-1H-pyrrolo[3,2-b]pyridine-3-carboxamide] | 239 | 453 |  |  |
| Cn1cc(-c2ccc(Cn3cc(C(=O)N[C@H]4CCOC[C@@H]4O)c4ncccc43)c(F)c2)cn1 (single isomer, unassigned) [Example 59, 1-[[2-fluoro-4-(1-methylpyrazol-4-yl)phenyl]methyl]-N-[(3R,4S) or (3S,4R)-3-hydroxyoxan-4-yl]pyrrolo[3,2-b]pyridine-3-carboxamide] |  |  | 15.5 | 18 |
| NC(=O)c1ccc(Cn2cc(C(=O)N[C@@H]3CCOC[C@H]3O)c3ncccc32)cc1 (stereo in doubt) [Example 63a, 1-(4-Carbamoylbenzyl)-N-((3S,4R)-3-hydroxytetrahydro-2H-pyran-4-yl)-1H-pyrrolo[3,2-b]pyridine-3-carboxamide] |  |  | 289 | 661 |
| NC(=O)c1ccc(Cn2cc(C(=O)N[C@H]3CCOC[C@@H]3O)c3ncccc32)cc1 (stereo in doubt) [Example 63b, 1-(4-carbamoylbenzyl)-N-((3R,4S)-3-hydroxytetrahydro-2H-pyran-4-yl)-1H-pyrrolo[3,2-b]pyridine-3-carboxamide] |  |  | 13 | 47 |
| O=C(N[C@H]1CCCC[C@@H]1O)c1cn(Cc2cc(Br)ccc2F)c2cccnc12 [Example 1, 1-(5-bromo-2-fluorobenzyl)-N-((1S,2S)-2-hydroxycyclohexyl)-1H-pyrrolo[3,2b]pyridine-3-carboxamide] |  |  | 545 | 1950 |
| Cn1cc(-c2ccc(Cn3cc(C(=O)N[C@H]4CCCC[C@@H]4O)c4ncccc43)c(F)c2)cn1 [Example 2, 1-(2-fluoro-4-(1-methyl-1H-pyrazol-4-yl)benzyl)-N-((1S,2S)-2-hydroxycyclohexyl)-1H-pyrrolo[3,2-b]pyridine-3-carboxamide] | 9.86 | 34.7 |  |  |
| Cn1cc(-c2ccc(Cn3cc(C(=O)N[C@@H]4CCCC[C@H]4O)c4ncccc43)c(F)c2)cn1 [Example 3, 1-(2-fluoro-4-(1-methyl-1H-pyrazol-4-yl)benzyl)-N-((1R,2R)-2-hydroxycyclohexyl)-1H-pyrrolo[3,2-b]pyridine-3-carboxamide] |  |  | 101 | 131 |
| O=C(N[C@H]1CCCC[C@@H]1O)c1cn(Cc2ccc(Cl)nc2)c2cccnc12 [Example 5, 1-((6-chloropyridin-3-yl)methyl)-N-((1S,2S)-2-hydroxycyclohexyl)-1H-pyrrolo[3,2-b]pyridine-3-carboxamide] |  |  | 489 | 2320 |
| Cn1cc(-c2ccc(Cn3nc(C(=O)N[C@H]4CCCC[C@@H]4O)c4ncccc43)c(F)c2)cn1 [Example 6, 1-(2-fluoro-4-(1-methyl-1H-pyrazol-4-yl)benzyl)-N-((1S,2S)-2-hydroxycyclohexyl)-1H-pyrazolo[4,3-b]pyridine-3-carboxamide] | 25.3 | 71.5 |  |  |
| C[C@@H](CO)NC(=O)c1cn(Cc2ccc(-c3cnn(C)c3)cc2F)c2cccnc12 [Example 8, 1-[2-Fluoro-4-(1-methyl-1H-pyrazol-4-yl)-benzyl]-1H-pyrrolo[3,2-b]pyridine-3-carboxylic acid ((S)-2-hydroxy-1-methyl-ethyl)-amide] |  |  | 248 | 695 |
| Cn1cc(-c2ccc(Cn3cc(C(=O)NCC(C)(C)O)c4ncccc43)c(F)c2)cn1 [Example 11, 1-[2-Fluoro-4-(1-methyl-1H-pyrazol-4-yl)-benzyl]-1H-pyrrolo[3,2-b]pyridine-3-carboxylic acid (2-hydroxy-2-methyl-propyl)-amide] |  |  | 317 | 616 |
| CC[C@@H](CO)NC(=O)c1cn(Cc2ccc(-c3cnn(C)c3)cc2F)c2cccnc12 [Example 12, 1-[2-Fluoro-4-(1-methyl-1H-pyrazol-4-yl)-benzyl]-1H-pyrrolo[3,2-b]pyridine-3-carboxylic acid ((S)-1-hydroxymethyl-propyl)-amide] |  |  | 129 | 244 |
| CCC(CO)NC(=O)c1cn(Cc2ccc(-c3cnn(C)c3)cc2F)c2cccnc12 (stereo not drawn) [Example 13, 1-[2-Fluoro-4-(1-methyl-1H-pyrazol-4-yl)-benzyl]-1H-pyrrolo[3,2-b]pyridine-3-carboxylic acid (1-hydroxymethyl-propyl)-amide] |  |  | 195 | 632 |
| CCC(O)CNC(=O)c1cn(Cc2ccc(-c3cnn(C)c3)cc2F)c2cccnc12 (stereo not drawn) [Example 14, 1-[2-Fluoro-4-(1-methyl-1H-pyrazol-4-yl)-benzyl]-1H-pyrrolo[3,2-b]pyridine-3-carboxylic acid (2-hydroxy-butyl)-amide] | 100 | 155 |  |  |
| Cn1cc(-c2ccc(Cn3cc(C(=O)N[C@H]4CCC[C@@H]4O)c4ncccc43)c(F)c2)cn1 [Example 17, 1-[2-Fluoro-4-(1-methyl-1H-pyrazol-4-yl)-benzyl]-1H-pyrrolo[3,2-b]pyridine-3-carboxylic acid ((1S,2S)-2-hydroxy-cyclopentyl)-amide] |  |  | 64.9 | 272 |
| Cn1cc(-c2ccc(Cn3cc(C(=O)N[C@H]4CCC[C@H]4O)c4ncccc43)c(F)c2)cn1 [Example 18, 1-[2-Fluoro-4-(1-methyl-1H-pyrazol-4-yl)-benzyl]-1H-pyrrolo[3,2-b]pyridine-3-carboxylic acid ((1S,2R)-2-hydroxy-cyclopentyl)-amide] |  |  | 96 | 195 |
| CC(C)[C@@H](CO)NC(=O)c1cn(Cc2ccc(-c3cnn(C)c3)cc2F)c2cccnc12 [Example 19, 1-[2-Fluoro-4-(1-methyl-1H-pyrazol-4-yl)-benzyl]-1H-pyrrolo[3,2-b]pyridine-3-carboxylic acid ((S)-1-hydroxymethyl-2-methyl-propyl)-amide] |  |  | 178 | 285 |
| CCCC(CO)NC(=O)c1cn(Cc2ccc(-c3cnn(C)c3)cc2F)c2cccnc12 (stereo not drawn) [Example 20, 1-[2-Fluoro-4-(1-methyl-1H-pyrazol-4-yl)-benzyl]-1H-pyrrolo[3,2-b]pyridine-3-carboxylic acid (1-hydroxymethyl-butyl)-amide] |  |  | 199 | 499 |
| CC(C)C(CO)NC(=O)c1cn(Cc2ccc(-c3cnn(C)c3)cc2F)c2cccnc12 (stereo not drawn) [Example 22, 1-[2-Fluoro-4-(1-methyl-1H-pyrazol-4-yl)-benzyl]-1H-pyrrolo[3,2-b]pyridine-3-carboxylic acid (1-hydroxymethyl-2-methyl-propyl)-amide] |  |  | 183 | 381 |
| Cn1cc(-c2ccc(Cn3cc(C(=O)NCC4(O)CCCC4)c4ncccc43)c(F)c2)cn1 [Example 24, 1-[2-Fluoro-4-(1-methyl-1H-pyrazol-4-yl)-benzyl]-1H-pyrrolo[3,2-b]pyridine-3-carboxylic acid (1-hydroxy-cyclopentylmethyl)-amide] | 193 | 261 |  |  |
| CC[C@H](C)[C@@H](CO)NC(=O)c1cn(Cc2ccc(-c3cnn(C)c3)cc2F)c2cccnc12 [Example 26, 1-[2-Fluoro-4-(1-methyl-1H-pyrazol-4-yl)-benzyl]-1H-pyrrolo[3,2-b]pyridine-3-carboxylic acid ((1S,2S)-1-hydroxymethyl-2-methyl-butyl)-amide] | 143 | 302 |  |  |
